This note sets out measurements from ChEMBL document CHEMBL1201862, “PubChem BioAssay data set” (2004).

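Tested at 5 concentrations; 48 h exposure; 96-well plates; endpoints linearly interpolated, else capped at highest concentration. GI50 is the concentration that inhibits growth by half.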 The source made the active and inactive calls. Rule as the data show it: active = GI50 up to about 1.1 µM and inactive = higher.

Some test systems named below: HCT-116; ACHN; SNB-75; IGROV-1; UO-31; K562; SW-620; HL-60; SF-295; KM12; CCRF-CEM; DU-145; Hs-578T; HCT-15; HOP-62; EKVX; MDA-N; NCI-H23; OVCAR-4.
What all share (assay): growth of human tumour cells (NCI), 48 h

For `O=C(NO)c1ccc(OCc2ccccc2)cc1`, the GI50 is 12.1 µM (inactive) in the test on HCT-116; 22.3 µM (inactive) in the test with ACHN; 29.4 µM (inactive) in the test with SNB-75; 14.3 µM (inactive) in the test on IGROV-1; 22.2 µM (inactive) with UO-31; 37.7 µM (inactive) in the test on K562. Moreover, the GI50 is 24.5 µM (inactive) in the test with SW-620; 16 µM (inactive) in the test with HL-60; 26.2 µM (inactive) in the test with SF-295; 25.5 µM (inactive) in the test with KM12; 6.89 µM (inactive) in the test on CCRF-CEM; 14.3 µM (inactive) with DU-145. Also, the GI50 is 65.3 µM (inactive) in the test with Hs-578T; 15 µM in the test on HCT-15; 35.1 µM (inactive) with HOP-62; 20.7 µM (inactive) with EKVX; 25.9 µM (inactive) in the test on MDA-N; 14.1 µM (inactive) in the test on NCI-H23. Further, in the test with OVCAR-4, the GI50 is 15 µM (inactive).
In the case of `Nc1ncnc2c1nc(Cl)n2C1OC(CO)C(O)C1O` (centres undefined), the GI50 was 0.352 µM (active) with HCT-116; 0.489 µM (active) in the test on ACHN; 1.49 µM (inactive) in the test on SNB-75; 0.653 µM (active) in the test on IGROV-1; 0.906 µM (active) in the test with UO-31; 0.347 µM (active) with K562. Also, the GI50 with SW-620 is 1.55 µM (inactive); with HL-60, 0.181 µM (active); in the test with SF-295, 5.11 µM (inactive); in the test with KM12, 2.04 µM (inactive); in the test on CCRF-CEM, 0.607 µM (active); with DU-145, 0.714 µM (active). Besides, the GI50 with Hs-578T was 15.3 µM (inactive); in the test on HCT-15, 0.283 µM; in the test on HOP-62 it was 8.28 µM (inactive); in the test with EKVX it was 5.7 µM (inactive); with MDA-N it was 2.94 µM (inactive); with NCI-H23 it was 1.95 µM (inactive). In addition, the GI50 in the test on OVCAR-4 is 5.07 µM (inactive).
For the compound `CCCCCCCCCCCCCCC(O)C[N+](C)(CCO)CCO` (centres undefined), the GI50 was 5.79 µM (inactive) in the test with HCT-116; 6.01 µM (inactive) in the test with ACHN; 0.746 µM (active) in the test on SNB-75; 1.15 µM (inactive) in the test on IGROV-1; 4.27 µM (inactive) in the test with UO-31; 4.24 µM (inactive) in the test with K562. Also, the GI50 in the test on SW-620 was 6.22 µM (inactive); in the test with HL-60, 0.585 µM (active); with SF-295, 2.25 µM (inactive); in the test with KM12, 1.94 µM (inactive); in the test with CCRF-CEM it was 1.57 µM (inactive); in the test with DU-145, 11 µM (inactive). Further, the GI50 with Hs-578T was 2.17 µM (inactive); in the test with HCT-15, 5.96 µM; in the test on HOP-62, 2.19 µM (inactive); with EKVX, 17.7 µM (inactive); in the test with MDA-N, 5.86 µM (inactive); in the test on NCI-H23 it was 4.49 µM (inactive). Also, the GI50 in the test with OVCAR-4 is 3.73 µM (inactive).
In the case of `CC1=NC(=Cc2cc(Br)cc(Br)c2)C(=O)N1n1c(-c2ccccc2)nc2ccccc2c1=O`, the GI50 in the test with HCT-116, in the test with ACHN, in the test with SNB-75, in the test with IGROV-1, in the test on UO-31 and with K562 was > 100 µM (inactive) in each case. Also, the GI50 in the test with SW-620, with HL-60, in the test with SF-295, in the test on KM12, with CCRF-CEM and with DU-145 was > 100 µM (inactive) in each case. For the same compound, the GI50 was > 100 µM (inactive) with Hs-578T; more than 100 µM in the test with HCT-15; > 100 µM (inactive) in the test with HOP-62; > 100 µM (inactive) in the test with EKVX; > 100 µM (inactive) with MDA-N; > 100 µM (inactive) in the test with NCI-H23. For the same compound, the GI50 in the test with OVCAR-4 was > 100 µM (inactive).
Consider `CNC(=O)C1CCCN1C(=O)C(Cc1c[nH]cn1)NC(=O)C1CCC(=O)N1` (centres undefined), for which the GI50 with HCT-116, in the test with ACHN, in the test on SNB-75, with IGROV-1, with UO-31 and in the test on K562 was > 100 µM (inactive) throughout. The GI50 with SW-620, with HL-60, in the test with SF-295, with KM12, with CCRF-CEM and in the test on DU-145 was > 100 µM (inactive) throughout. Besides, the GI50 in the test on Hs-578T is > 100 µM (inactive); in the test on HCT-15 it was more than 100 µM; in the test on HOP-62, > 100 µM (inactive); with EKVX, > 100 µM (inactive); with MDA-N it was > 100 µM (inactive); in the test with NCI-H23, > 100 µM (inactive). Moreover, in the test with OVCAR-4, the GI50 is > 100 µM (inactive).
As to `COc1ccc(CNC(=O)[C@H](Cc2ccc(O)cn2)NC(C)=O)cc1OC`, the GI50 in the test with HCT-116, in the test on ACHN, in the test with SNB-75, in the test with IGROV-1, in the test with UO-31 and with K562 was > 100 µM (inactive) in each case. The GI50 in the test with SW-620, in the test with HL-60, in the test with SF-295, in the test on KM12, in the test with CCRF-CEM and with DU-145 was > 100 µM (inactive) throughout. Besides, the GI50 was > 74.5 µM (inactive) in the test with Hs-578T; more than 100 µM in the test with HCT-15; > 100 µM (inactive) in the test on HOP-62; > 100 µM (inactive) in the test with EKVX; > 100 µM (inactive) in the test on MDA-N; > 100 µM (inactive) in the test on NCI-H23. In the test with OVCAR-4, the GI50 was > 100 µM (inactive).
As to `OC1c2ccccc2CC12Cc1ccccc1C2` (centres undefined), the GI50 was 79.4 µM (inactive) in the test with HCT-116; > 100 µM (inactive) in the test with ACHN; 61.4 µM (inactive) with SNB-75; > 100 µM (inactive) with IGROV-1; 94.2 µM (inactive) in the test with UO-31; 72.4 µM (inactive) in the test with K562. Moreover, the GI50 in the test with SW-620 was > 100 µM (inactive); in the test on HL-60 it was 74.1 µM (inactive); with SF-295, > 100 µM (inactive); in the test on KM12, > 100 µM (inactive); in the test with CCRF-CEM, > 100 µM (inactive); with DU-145 it was > 100 µM (inactive). For the same compound, the GI50 with Hs-578T is > 100 µM (inactive); in the test on HCT-15, more than 100 µM; with HOP-62, > 100 µM (inactive); with EKVX, > 100 µM (inactive); with MDA-N, > 100 µM (inactive); in the test with NCI-H23, > 100 µM (inactive). Further, the GI50 with OVCAR-4 is > 100 µM (inactive).
`COc1ccc2[nH]c3c(C)c4ccnc(NCCCN(C)CCCNC(=O)NCCCN(C)CCCNc5nccc6c(C)c7[nH]c8ccc(OC)cc8c7c(C)c56)c4c(C)c3c2c1`: the GI50 with HCT-116 is 0.208 µM (active); in the test with ACHN it was 0.352 µM (active); in the test on SNB-75, 0.402 µM (active); with IGROV-1 it was 0.476 µM (active); in the test on UO-31, 0.881 µM (active); with K562 it was 0.23 µM (active). Besides, the GI50 was 0.202 µM (active) in the test on SW-620; 0.147 µM (active) in the test with HL-60; 0.566 µM (active) in the test with SF-295; 1.03 µM (active) with KM12; 0.147 µM (active) in the test on CCRF-CEM; 1.19 µM (inactive) with DU-145. For the same compound, the GI50 with Hs-578T is 0.977 µM (active); in the test with HCT-15, 1.26 µM; in the test on HOP-62, 0.419 µM (active); with EKVX, 0.925 µM (active); in the test with MDA-N it was 0.748 µM (active); in the test with NCI-H23, 0.989 µM (active). For the same compound, the GI50 in the test on OVCAR-4 was 0.596 µM (active).
For `Nc1[nH]c(=S)[nH]c(=O)c1/N=N/c1c(Br)cc(S(N)(=O)=O)cc1Br`, the GI50 in the test with HCT-116 was > 100 µM (inactive); in the test with ACHN, > 100 µM (inactive); in the test on SNB-75, 35.7 µM (inactive); with IGROV-1, > 100 µM (inactive); with UO-31, > 100 µM (inactive); in the test on K562, > 100 µM (inactive). Further, the GI50 in the test with SW-620, in the test on HL-60, in the test on SF-295, with KM12, with CCRF-CEM and in the test with DU-145 was > 100 µM (inactive) in each case. Besides, the GI50 with Hs-578T is > 100 µM (inactive); in the test with HCT-15 it was more than 100 µM; in the test on HOP-62 it was > 100 µM (inactive); with EKVX it was > 100 µM (inactive); in the test on MDA-N, > 100 µM (inactive); in the test on NCI-H23 it was > 100 µM (inactive). Moreover, in the test with OVCAR-4, the GI50 was > 100 µM (inactive).
Take `O=C1N[C@H]2C(=O)c3c(Cl)sc(Cl)c3[C@H]2O1`: the GI50 in the test on HCT-116 is 3.66 µM (inactive); in the test on ACHN, 7.6 µM (inactive); in the test with SNB-75, 15.5 µM (inactive); in the test with IGROV-1, 4.69 µM (inactive); in the test with UO-31, 1.71 µM (inactive); in the test on K562, 1.99 µM (inactive). Besides, the GI50 in the test on SW-620 is 2.18 µM (inactive); with HL-60 it was 2.18 µM (inactive); in the test with SF-295 it was 16.9 µM (inactive); in the test with KM12, 17.3 µM (inactive); in the test with CCRF-CEM, 0.774 µM (active); in the test with DU-145 it was 11.2 µM (inactive). Also, the GI50 in the test on Hs-578T was 23.2 µM (inactive); with HCT-15, 3.86 µM; in the test on HOP-62, 16.5 µM (inactive); in the test on EKVX, 2 µM (inactive); in the test with MDA-N it was 5.06 µM (inactive); in the test on NCI-H23, 5.94 µM (inactive). In addition, in the test with OVCAR-4, the GI50 is 2.15 µM (inactive).
For `COC(=O)c1c(C)cccc1C1CN=NC12Cc1ccccc1C2=O` (centres undefined), the GI50 is 46.2 µM (inactive) in the test with HCT-116; > 100 µM (inactive) in the test with ACHN; 65.2 µM (inactive) in the test on SNB-75; > 91.2 µM (inactive) with IGROV-1; 33.1 µM (inactive) in the test with UO-31; 37.1 µM (inactive) in the test with K562. Further, the GI50 with SW-620 was > 100 µM (inactive); in the test on HL-60 it was 36.9 µM (inactive); with SF-295, 62.2 µM (inactive); in the test with KM12 it was > 78 µM (inactive); in the test on CCRF-CEM, 38.6 µM (inactive); with DU-145, > 100 µM (inactive). Further, the GI50 with Hs-578T is 96.2 µM (inactive); in the test on HCT-15, 78.3 µM; in the test on HOP-62 it was > 100 µM (inactive); in the test on EKVX, > 93.5 µM (inactive); in the test on MDA-N, > 100 µM (inactive); in the test on NCI-H23, 60.4 µM (inactive). In addition, the GI50 in the test on OVCAR-4 is > 92.3 µM (inactive).
